Data set [1] in a line: Solubility in dimethylsulfoxide (observation during characterisation). The format is physicochemical. As for the experimental part:
A 5-L round-bottomed flask equipped with a mechanical stirrer and a reflux condenser was charged with the isolated solid (16.5 g) and acetone (2700 mL) was added in portions via the condenser while the suspension was heated to reflux. The reflux condenser was replaced with a regular one and acetone was distilled off. After distilling 2130 mL of acetone, the formed slurry was cooled to room temperature, stirred overnight, and filtered on a sintered-glass funnel to give a dark-yellow, crystalline, sandy solid. The filtered solid was dried at 40° C. in vacuo to give 12.5 g (76% recrystallization yield; 38% total yield) of 5-(4,4-dimethyl-2-thioxo-1,4-dihydro-2H-3,1-benzoxazin-6-yl)-1-methyl-1H-pyrrole-2-carbothioamide. LC purity: 95.94%; 1.65% NSP-989; rrt 0.88. LC-MS: 331 (M^+); impurity 297 (NSP-989). Mp: particles of various shapes; small particles melted 210-215° C.; next 218-220° C.; final melt 223-226° C. IR (KBr, cm^−1): 3375, 3269, 3165, 2211, 1624, 1610, 1540, 1526, 1466, 1370, 1294, 1261, 1186, 1114, 1086, 959, 880, 822, 779. ^1H NMR (DMSO-d6, ppm): 12.28 (s, 1H), 9.22 (s, 1H, S═CNH2), 8.97 (s, 1H, S═CNH2), 7.41 (d, 1H, J=7.05 Hz), 7.40 (s, 1H), 7.12 (d, 1H, J=8.85 Hz), 6.72 (d, 1H, J=3.9 Hz), 6.23 (d, 1H, J=3.9 Hz), 3.83 (s, 3H), 1.68 (s, 6H).

Data set [2] relates to alkaline phosphatase activity in T47D cells. The data set is described as follows: T47D cytosol alkaline phosphatase assay (progestin/agonist mode). Conditions: Homo sapiens, 24 hours treatment; for Emax: agonist mode, read-out: % Efficacy; for EC50: T47D, 24 h, test compounds. It counts as cell-based. As to the method:
5-(4,4-dimethyl-2-thioxo-1,4-dihydro-2H-3,1-benzoxazin-6-yl)-1-methyl-1H-pyrrole-2-carbothioamide (1) and 5-(4,4-dimethyl-2-oxo-1,4-dihydro-2H-3,1-benzoxazin-6-yl)-1-methyl-1H-pyrrole-2-carbothioamide (2) were tested in a T47D cytosol alkaline phosphatase assay (Table 1). The purpose of this functional assay was to identify progestins or antiprogestins by determining the compound's effect on alkaline phosphatase activity in T47D cells.
(i) Culture Medium: • DMEM:F12 (1:1) (GIBCO, BRL) supplemented with 5% (v/v) charcoal stripped fetal bovine serum (not heat-inactivated), 100 U/mL penicillin, 100 μg/mL streptomycin, and 2 mM the GlutaMax™ reagent (GIBCO, BRL).
(ii) Alkaline Phosphatase Assay Buffer: • I. 0.1 M Tris-HCl, pH 9.8, containing 0.2% the Triton™ reagent X-100 • II. 0.1 M Tris-HCl, pH 9.8 containing 4 mM p-nitrophenyl phosphate (Sigma).
(iii) Cell Culture and Treatment: • Frozen T47D cells were thawed in a 37° C. water bath and diluted to 280,000 cells/mL in culture medium. To each well in a 96-well plate (Falcon, Becton Dickinson Labware), 180 μL of diluted cell suspension was added. Twenty μL of reference or test compounds diluted in the culture medium was then added to each well. When testing for progestin antagonist activity, reference antiprogestins or test compounds were added in the presence of 1 nM progesterone. The cells were incubated at 37° C. in a 5% CO2/humidified atmosphere for 24 hours.
(iv) Alkaline Phosphatase Enzyme Assay: • At the end of treatment, the medium was removed from the plate and 50 μL of assay buffer I was added to each well. The plates were shaken in a titer plate shaker for 15 minutes. Then 150 μL of assay buffer II was added to each well. Optical density measurements were taken at 5 minute intervals for 30 minutes at a test wavelength of 405 nm.
(v) Analysis of Results: • Analysis of dose-response data: For reference and test compounds, a dose response curve is generated for dose (X-axis) vs. the rate of enzyme reaction (slope) (Y-axis). Square root-transformed data are used for analysis of variance and nonlinear dose response curve fitting for both agonist and antagonist modes. Huber weighting is used to downweight the effects of outliers. EC50 or IC50 values are calculated from the retransformed values. JMP software (SAS Institute, Inc.) is used for both one-way analysis of variance and non-linear dose response analyses in both single dose and dose response studies.
(vi) Reference Compounds: • Progesterone and trimegestone are reference progestins and RU486 was the reference antiprogestin. All reference compounds are run in full dose response curves and the EC50 or IC50 values calculated.

Data set [3] shares this test system. The data set is described as follows: T47D alkaline phosphatase assay (antiprogestin/antagonist mode, in the presence of 1 nM progesterone). It counts as cell-based. Conditions: Homo sapiens, reference antiprogestin, three independent experiments (Exp 1-3), read-out: Estimated IC50. As to the method:
0.1 M Tris-HCl, pH 9.8 containing 4 mM p-nitrophenyl phosphate (Sigma). […] To each well in a 96-well plate (Falcon, Becton Dickinson Labware), 180 μL of diluted cell suspension was added. Twenty μL of reference or test compounds diluted in the culture medium was then added to each well. When testing for progestin antagonist activity, reference antiprogestins or test compounds were added in the presence of 1 nM progesterone. The cells were incubated at 37° C. in a 5% CO2/humidified atmosphere for 24 hours. […] The plates were shaken in a titer plate shaker for 15 minutes. Then 150 μL of assay buffer II was added to each well. […] Square root-transformed data are used for analysis of variance and nonlinear dose response curve fitting for both agonist and antagonist modes. Huber weighting is used to downweight the effects of outliers. EC50 or IC50 values are calculated from the retransformed values.

Here are results for 3 compounds from patent US8168672B2, “Thioamide derivatives as progesterone receptor modulators” (Wyeth, priority 2004, dated 2012).

Values joined by “and” are separate entries in the source; they are usually repeats but may differ in a detail not shown here. Equal values may be shown once.

By EC50 is commonly meant the midpoint of the concentration-response curve. The low end stands for greater potency, the high end for weaker potency. What is called IC50 is the point on the concentration scale where inhibition reaches its midpoint.

On to `Cn1c(C(N)=S)ccc1-c1ccc2c(c1)C(C)(C)OC(=S)N2` [Compound 1, 5-(4,4-dimethyl-2-thioxo-1,4-dihydro-2H-3,1-benzoxazin-6-yl)-1-methyl-1H-pyrrole-2-carbothioamide], for which, in data set [1], the “Solubility in dimethylsulfoxide (DMSO)” value is listed as “sparingly soluble”. Besides, in data set [2], the Emax amounted to 60% and a half-maximal response (EC50) required 0.2 nM.

In the case of `Cn1c(C(N)=S)ccc1-c1ccc2c(c1)C(C)(C)OC(=O)N2` [Compound 2, 5-(4,4-dimethyl-2-oxo-1,4-dihydro-2H-3,1-benzoxazin-6-yl)-1-methyl-1H-pyrrole-2-carbothioamide], in data set [2], the Emax is 72% and the concentration giving a half-maximal response (EC50) is 1.9 nM.

On to `CC#C[C@]1(O)CC[C@H]2[C@@H]3CCC4=CC(=O)CCC4=C3[C@@H](c3ccc(N(C)C)cc3)C[C@@]21C` [RU486], for which the IC50 in data set [3] was 0.103 nM and 0.12 nM.
